In PubChem BioAssay (NCI):
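All cell lines were grown in 96-well plates and treated with compound for 48 hours. GI50 = concentration required for 50% inhibition of growth. At the TGI there is no net growth.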

Tests used:
Assay in all cases: NCI tumour cell line growth inhibition, 48 h
[1] = system: U251 CNS
[2] = system: SK-MEL-2 melanoma
[3] = system: SNB-19 CNS
[4] = system: UO-31 renal
[5] = system: EKVX NSCLC
[6] = system: RXF 393 renal
[7] = system: HCT-15 colon
[8] = system: HL-60(TB) leukemia
[9] = system: MALME-3M melanoma
[10] = system: MDA-N

SMILES	TGI [1]	TGI [2]	TGI [3]	TGI [4]	TGI [5]	TGI [6]	TGI [7]	TGI [8]	TGI [9]	TGI [10]	GI50 [1]	GI50 [2]	GI50 [4]	GI50 [5]	GI50 [6]	GI50 [7]	GI50 [9]
C=C(/C=C/C=C(/CCC=C(C)C)COC(C)=O)[C@@H]1CC[C@]2([C@H](CCCO)/C(=C(/C)C=O)CC[C@]2(C)O)[C@@H]1O	30.7 µM	33 µM	29.7 µM	25.6 µM	42.2 µM	33.1 µM	30.4 µM	11.1 µM	15.7 µM	–	–	–	–	–	–	–	–
Nc1nc(SCCC/C=C/B(O)O)nc2c1ncn2C1OC(CO)C(O)C1O (stereo unspecified)	> 243 µM	> 243 µM	> 243 µM	–	> 243 µM	> 243 µM	> 243 µM	> 243 µM	> 243 µM	–	–	–	–	–	–	–	–
NC(Cc1ccc2oc3cc(=O)c4ccccc4c-3nc2c1)C(=O)O (stereo unspecified)	> 87.1 µM	74.3 µM	> 97.7 µM	> 100 µM	> 100 µM	99.8 µM	> 88.3 µM	76.2 µM	17.6 µM	14.8 µM	–	–	–	–	–	–	–
Cc1nnc2sc(-c3ccc(N)cc3)nn12	–	> 100 µM	> 100 µM	> 100 µM	> 100 µM	> 100 µM	> 100 µM	> 100 µM	> 100 µM	–	–	–	–	–	–	–	–
CCOC(=O)C1=C(C)N(Cc2ccc(Cl)cc2Cl)C2(O)C(OC)CC(=O)C3C(=O)N(c4ccccc4)C(=O)C132 (stereo unspecified)	3.69 µM	7.01 µM	11.8 µM	18.7 µM	16.7 µM	3.14 µM	2.64 µM	6.9 µM	23.9 µM	–	–	–	–	–	–	–	–
CN[C@@H]1[C@H](O)[C@H](NC)[C@H]2O[C@@]3(O)C(=O)C[C@@H](C)O[C@H]3O[C@@H]2[C@H]1O	> 100 µM	–	> 100 µM	> 100 µM	> 100 µM	> 100 µM	> 100 µM	> 100 µM	> 100 µM	> 100 µM	–	–	–	–	–	–	–
O=S(=O)(O)c1cc(O)c2c(O)c(N=Nc3ccc(/C=C/c4ccc(N=Nc5c(S(=O)(=O)O)cc6cc(S(=O)(=O)O)cc(O)c6c5O)cc4S(=O)(=O)O)c(S(=O)(=O)O)c3)c(S(=O)(=O)O)cc2c1	> 100 µM	> 100 µM	> 100 µM	> 100 µM	> 100 µM	> 100 µM	> 100 µM	> 100 µM	> 100 µM	–	–	–	–	–	–	–	–
CC(=O)O[C@H]1CC[C@]2(C)[C@H]3C(=O)C=C4[C@@H]5C[C@](C)(C(=O)N6CCCNCC6)CC[C@]5(C)CC[C@@]4(C)[C@]3(C)CC[C@H]2C1(C)C	3.37 µM	3.7 µM	–	2.82 µM	3.15 µM	3.24 µM	2.97 µM	–	3.47 µM	–	1.6 µM	1.93 µM	1.4 µM	1.67 µM	1.66 µM	1.48 µM	1.8 µM
N=C(N)SC1c2ccccc2-c2cc([N+](=O)[O-])ccc21 (stereo unspecified)	8.95 µM	13.9 µM	14.3 µM	20.3 µM	29 µM	10.3 µM	22.6 µM	11.9 µM	16.9 µM	10.9 µM	–	–	–	–	–	–	–
CCOC(=O)C1=C(C)N2CCCOC2(C)C(C(=O)OC)C1c1cccc([N+](=O)[O-])c1 (stereo unspecified)	–	> 100 µM	> 100 µM	> 100 µM	> 100 µM	> 100 µM	–	> 100 µM	–	–	–	–	–	–	–	–	–
CC1(C)[C@@H]2C[C@H]1C(Cc1ccccc1C[C@H]1c3cc(-c4ccccn4)ncc3[C@H]3C[C@@H]1C3(C)C)c1cc(-c3ccccn3)ncc12 (stereo partly specified)	> 28.8 µM	> 90.3 µM	> 100 µM	2.41 µM	> 100 µM	> 25.1 µM	> 100 µM	0.65 µM	> 100 µM	> 100 µM	–	–	–	–	–	–	–
O=[N+]([O-])/C=C/c1cccc(F)c1	16.4 µM	29.9 µM	29.7 µM	5.87 µM	7.45 µM	4.32 µM	5.6 µM	–	32.5 µM	14 µM	–	–	–	–	–	–	–
